# Reference: US9884040B2, “Desethylamiodarone for use in cancer treatment” (PÉCSI TUDOMÁNYEGYETEM, priority 2015, dated 2018)
# Tests used:
# [1] = system: B16F10 (mice melanoma) cells; assay: MTT cell viability assay, B16F10; type: cell-based; conditions: 24 h and 48 h; 2.5, 5, 7.5 or 10 μM; vs untreated control
# Method: The cells were seeded into 96-well plates at a starting density of 10^4 cells per well and cultured overnight before DEA was added to the medium for 24 h and 48 h. […] The amount of blue formazan dye formed from MTT+ was proportional to the number of live cells, and was determined with an Anthos Labtech 2010 ELISA reader at 550 nm. All experiments were run in at least 4 replicates and repeated 3 times. The effect of desethylamiodarone was measured in T24 (human urinary bladder carcinoma), A549 (human lung adenocarcinoma epithelial), B16F10 (mice melanoma), HeLa (human cervix adenocarcinoma), 4T1 (mouse mammary carcinoma) cell lines. Cells were treated with increasing concentrations of desethylamiodarone for 24 and 48 h. Cell growth was assessed by measuring metabolic activity, which reflects viability in the MTT-test in the course of 24 h, 48 h of continued exposure to desethylamiorarone. The untreated cells served as negative controls. The viability of the cells, was lower in all DEA-treated than in the control group, with the difference being statistically significant. […] B16F10 cells were incubated with the indicated concentrations (2.5, 5, 7.5 or 10 μM) of desethylamiodarone for 24 h (A) and 48 h (B) and cell viability was measured by MTT assay (filled bars). Untreated cells served as controls. […]
# [2] = system: HeLa human cervix adenocarcinoma cell line; assay: Colony formation assay, HeLa; type: cell-based; conditions: one week; 1, 1.5, 2, 2.5 or 3 μM
# Method: Cells were trypsinized and plated in triplicate into 6-well plates at 500 cells/well. Cells were treated with different concentration of Dea. After 7 days of incubation, cells were washed and stained with Coomassie-blue, and the colonies containing more than 50 cells were counted. The number of colonies were determined and normalized to the number of colonies in controls. To assess the recovery ability of cells that survived treatment, long-term (7 days) colony formation assay was performed. […] HeLa cells were incubated with the indicated concentrations of desethylamiodarone (1, 1.5, 2, 2.5 or 3 μM for one week and cell colonies were fixed, stained and counted. (A-B) Data are expressed as the mean±SD of ≧3 experiments; a p<0.01 is considered statistically significant The data shown on FIG. 8 provide evidence that DEA can be useful to cervix carcinoma.
compound,measurement,setting,value
"CCCCc1oc2ccccc2c1C(=O)c1cc(I)c(OCCNCC)c(I)c1 [DEA, (2-butyl-3-benzofuranyl)[4-[2-(ethylamino)ethoxy]-3,5-diiodophenyl]-methanone]",Viability of B16F10 cells (MTT),[1],Significantly different from control group at p<0.01
same,"Colony formation, HeLa",[2],significant decrease in the number and the size of colonies
